This is an account of results in patent US20260327242A1, “Platform and Scaffold for FAP Targeting Agents” (Erasmus University Medical Center Rotterdam, priority 2022, published 2026).

A word on the IC50: it is the concentration that gives 50% inhibition.

The target in experiment [1] is T1, mouse FAP (mFAP) (Mus musculus, UniProt P97321).
T1 sequence (P97321 26-761 limits assumed): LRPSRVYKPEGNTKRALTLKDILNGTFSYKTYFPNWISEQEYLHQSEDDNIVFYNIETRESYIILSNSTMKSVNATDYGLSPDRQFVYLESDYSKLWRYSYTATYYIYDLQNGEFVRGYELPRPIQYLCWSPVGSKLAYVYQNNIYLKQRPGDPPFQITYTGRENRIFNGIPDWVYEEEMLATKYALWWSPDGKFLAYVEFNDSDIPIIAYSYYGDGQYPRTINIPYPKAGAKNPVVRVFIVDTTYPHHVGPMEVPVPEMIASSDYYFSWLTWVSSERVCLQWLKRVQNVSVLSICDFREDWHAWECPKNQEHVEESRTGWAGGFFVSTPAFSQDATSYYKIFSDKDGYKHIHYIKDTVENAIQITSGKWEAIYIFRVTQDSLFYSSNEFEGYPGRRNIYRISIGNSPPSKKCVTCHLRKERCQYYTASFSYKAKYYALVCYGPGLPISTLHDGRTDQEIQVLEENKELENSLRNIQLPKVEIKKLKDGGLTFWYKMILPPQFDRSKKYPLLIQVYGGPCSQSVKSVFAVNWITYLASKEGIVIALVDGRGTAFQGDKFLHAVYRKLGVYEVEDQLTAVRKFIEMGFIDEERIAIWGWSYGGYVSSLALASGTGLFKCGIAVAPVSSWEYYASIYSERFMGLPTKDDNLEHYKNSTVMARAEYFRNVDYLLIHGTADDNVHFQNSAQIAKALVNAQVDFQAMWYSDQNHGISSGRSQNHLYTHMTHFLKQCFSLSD
As to the kind of experiment: In vitro inhibition assay on mouse FAP (Z-GP-AMC substrate). It counts as biochemical. The conditions noted are these: 20 μM Z-GP-AMC, 20 nM FAP, pH 7.4, room temperature. As to the method:
(§1) Enzymatic activity of human FAP (hFAP) and mouse FAP (mFAP) on the Z-GP-AMC substrate was measured at room temperature on a Hidex microplate reader by monitoring the fluorescence at an excitation wavelength of 360 nm and an emission wavelength of 465 nm. The reaction mixture contained 20 μM substrate, 20 nM FAP, assay buffer (50 mM Tris, 100 mM NaCl, 1 mM EDTA, pH 7.4) and tested compound (serial dilution from 10-6 to 10^−12) in a total volume of 50 μL.
Results with FAPI-46 obtained in the same assay is included for comparison.

Experiment [2] deals with T2, human FAP (hFAP) (Homo sapiens, UniProt Q12884).
T2 sequence (Q12884 26-760 limits assumed): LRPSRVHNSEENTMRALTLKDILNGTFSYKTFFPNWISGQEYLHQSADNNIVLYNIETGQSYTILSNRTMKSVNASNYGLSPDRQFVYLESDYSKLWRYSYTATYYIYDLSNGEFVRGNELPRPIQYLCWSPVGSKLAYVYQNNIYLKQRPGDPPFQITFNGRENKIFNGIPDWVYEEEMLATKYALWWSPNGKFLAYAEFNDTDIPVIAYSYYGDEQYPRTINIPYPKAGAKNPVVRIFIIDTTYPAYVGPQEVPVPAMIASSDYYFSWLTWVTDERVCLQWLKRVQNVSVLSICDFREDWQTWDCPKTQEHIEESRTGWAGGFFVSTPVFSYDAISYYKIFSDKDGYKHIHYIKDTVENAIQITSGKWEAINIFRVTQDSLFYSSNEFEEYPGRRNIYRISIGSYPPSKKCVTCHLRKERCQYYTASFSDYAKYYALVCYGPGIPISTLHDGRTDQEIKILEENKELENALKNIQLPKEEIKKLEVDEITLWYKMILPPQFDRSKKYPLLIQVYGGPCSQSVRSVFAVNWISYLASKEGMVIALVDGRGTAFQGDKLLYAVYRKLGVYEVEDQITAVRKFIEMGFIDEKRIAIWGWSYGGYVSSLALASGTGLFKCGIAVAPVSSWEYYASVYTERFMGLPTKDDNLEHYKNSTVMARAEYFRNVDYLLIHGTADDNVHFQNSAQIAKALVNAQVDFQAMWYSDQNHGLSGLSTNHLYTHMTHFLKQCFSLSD
As to the kind of experiment: In vitro inhibition assay on human FAP (Z-GP-AMC substrate). It counts as biochemical. Particulars: 20 μM Z-GP-AMC, 20 nM FAP, pH 7.4, room temperature. As to the method: as §1

The compound `CN1/C(=C/C=C/C=C/C2=[N+](CCCCCC(=O)NCCCOc3cccc4c(C(=O)NCC(=O)N5CC(F)(F)C[C@H]5C#N)ccnc34)c3ccc(S(=O)(=O)[O-])cc3C2(C)C)C(C)(C)c2cc(S(=O)(=O)O)ccc21` [eFAP-7, 1-(6-((3-((4-((2-((S)-2-Cyano-4,4-difluoropyrrolidin-1-yl)-2-oxoethyl)carbamoyl)quinolin-8-yl)oxy)propyl)amino)-6-oxohexyl)-3,3-dimethyl-5-sulfo-2-((1E,3E)-5-((E)-1,3,3-trimethyl-5-sulfoindolin-2-ylidene)penta-1,3-dien-1-yl)-3H-indol-1-ium] yielded a concentration for half-maximal inhibition (IC50) in experiment [1] of 2.5 ± 0.8 nM.

As to `N#C[C@@H]1CC(F)(F)CN1C(=O)CNC(=O)c1ccnc2c(OCCCNC(=O)CCC(C(=O)O)N3CCN(CC(=O)O)CCN(CC(=O)O)CCN(CC(=O)O)CC3)cccc12` (stereo partly drawn) [eFAP-8, 2,2′,2″-(10-(1-Carboxy-4-((3-((4-((2-((S)-2-cyano-4,4-difluoropyrrolidin-1-yl)-2-oxoethyl)carbamoyl)quinolin-8-yl)oxy)propyl)amino)-4-oxobutyl)-1,4,7,10-tetraazacyclododecane-1,4,7-triyl)triacetic acid], the figures for the IC50 in experiment [2] and in experiment [1] were 1.5 ± 0.2 nM and 1.1 ± 0.4 nM, respectively.

Regarding `N#C[C@@H]1CC(F)(F)CN1C(=O)CNC(=O)c1ccnc2c(OCCCNC(=O)C3CCC(CNC(=O)CN4CCN(CC(=O)O)CCN(CC(=O)O)CCN(CC(=O)O)CC4)CC3)cccc12` (stereo partly drawn) [eFAP-9, 2,2′,2″-(10-(2-(((4-((3-((4-((2-((S)-2-Cyano-4,4-difluoropyrrolidin-1-yl)-2-oxoethyl)carbamoyl)quinolin-8-yl)oxy)propyl)carbamoyl)cyclohexyl)methyl)amino)-2-oxoethyl)-1,4,7,10-tetraazacyclododecane-1,4,7-triyl)triacetic acid], the concentration for half-maximal inhibition (IC50) was 2.9 ± 0.6 nM in experiment [2] and 2.3 ± 0.3 nM in experiment [1].

Take `N#C[C@@H]1CC(F)(F)CN1C(=O)CNC(=O)c1ccnc2c(OCCCNC(=O)CN3CCC(NC(=O)CN4CCN(CC(=O)O)CCN(CC(=O)O)CCN(CC(=O)O)CC4)CC3)cccc12` [eFAP-10, (S)-2,2′,2″-(10-(2-((1-(2-((3-((4-((2-(2-Cyano-4,4-difluoropyrrolidin-1-yl)-2-oxoethyl)carbamoyl)quinolin-8-yl)oxy)propyl)amino)-2-oxoethyl)piperidin-4-yl)amino)-2-oxoethyl)-1,4,7,10-tetraazacyclododecane-1,4,7-triyl)triacetic acid]: the IC50 in experiment [2] and in experiment [1] was 2.4 ± 0.7 nM in each case.

In experiment [1], `N#C[C@@H]1CC(F)(F)CN1C(=O)CNC(=O)c1ccnc2c(OCCCNC(=O)COCC(=O)Nc3ccc(CNC(=O)CN4CCN(CC(=O)O)CCN(CC(=O)O)CCN(CC(=O)O)CC4)cc3)cccc12` [eFAP-11, (S)-2,2′,2″-(10-(2-((4-(2-(2-((3-((4-((2-(2-Cyano-4,4-difluoropyrrolidin-1-yl)-2-oxoethyl)carbamoyl)quinolin-8-yl)oxy)propyl)amino)-2-oxoethoxy)acetamido)benzyl)amino)-2-oxoethyl)-1,4,7,10-tetraazacyclododecane-1,4,7-triyl)triacetic acid] yielded an IC50 of 1.5 ± 0.2 nM.

In the case of `N#C[C@@H]1CC(F)(F)CN1C(=O)CNC(=O)c1ccnc2c(OCCCNC(=O)CN3CCN(C(=O)CN4CCN(CC(=O)O)CCN(CC(=O)O)CCN(CC(=O)O)CC4)CC3)cccc12` [eFAP-12, (S)-2,2′,2″-(10-(2-(4-(2-((3-((4-((2-(2-Cyano-4,4-difluoropyrrolidin-1-yl)-2-oxoethyl)carbamoyl)quinolin-8-yl)oxy)propyl)amino)-2-oxoethyl)piperazin-1-yl)-2-oxoethyl)-1,4,7,10-tetraazacyclododecane-1,4,7-triyl)triacetic acid], it took 1.8 ± 0.2 nM to reach half-maximal inhibition in experiment [1] (IC50).

For the compound `N#C[C@@H]1CC(F)(F)CN1C(=O)CNC(=O)c1ccnc2c(OCCCNC(=O)CN3CCN(CCNC(=O)CN4CCN(CC(=O)O)CCN(CC(=O)O)CCN(CC(=O)O)CC4)CC3)cccc12` [eFAP-13, (S)-2,2′,2″-(10-(2-((2-(4-(2-((3-((4-((2-(2-Cyano-4,4-difluoropyrrolidin-1-yl)-2-oxoethyl)carbamoyl)quinolin-8-yl)oxy)propyl)amino)-2-oxoethyl)piperazin-1-yl)ethyl)amino)-2-oxoethyl)-1,4,7,10-tetraazacyclododecane-1,4,7-triyl)triacetic acid], the IC50 in experiment [1] was 1.3 ± 0.6 nM.

As for `N#C[C@@H]1CC(F)(F)CN1C(=O)CNC(=O)c1ccnc2c(OCCCNC(=O)CCSc3nnc(SCCC(=O)NCCCOc4cccc5c(C(=O)NCC(=O)N6CC(F)(F)C[C@H]6C#N)ccnc45)c4c3CCCC(OC(=O)NCCCNC(=O)CCC(C(=O)O)N3CCN(CC(=O)O)CCN(CC(=O)O)CCN(CC(=O)O)CC3)CC4)cccc12` (stereo partly drawn) [eFAP-20, 2,2′,2″-(10-(4-((3-((((1,4-bis((3-((3-((4-((2-((S)-2-cyano-4,4-difluoropyrrolidin-1-yl)-2-oxoethyl)carbamoyl)quinolin-8-yl)oxy)propyl)amino)-3-oxopropyl)thio)-5,6,7,8,9,10-hexahydrocycloocta[d]pyridazin-7-yl)oxy)carbonyl)amino)propyl)amino)-1-carboxy-4-oxobutyl)-1,4,7,10-tetraazacyclododecane-1,4,7-triyl)triacetic acid], the results for the IC50 in experiment [2] and in experiment [1] were 1.15 nM and 1.11 nM, respectively.

Consider `N#C[C@@H]1CC(F)(F)CN1C(=O)CNC(=O)c1ccnc2c(OCCCNC(=O)CC(O)CNC(=O)CC(O)CNC(=S)Nc3ccc4c(c3)C(=O)OC43c4ccc(O)cc4Oc4cc(O)ccc43)cccc12` (stereo partly drawn) [eFAP-23, N-(2-((S)-2-cyano-4,4-difluoropyrrolidin-1-yl)-2-oxoethyl)-8-(3-(4-(4-(3-(3′,6′-dihydroxy-3-oxo-3H-spiro[isobenzofuran-1,9′-xanthen]-5-yl)thioureido)-3-hydroxybutanamido)-3-hydroxybutanamido)propoxy)quinoline-4-carboxamide], for which the IC50 in experiment [1] amounted to 2 ± 0.4 nM.

In the case of `N#C[C@@H]1CC(F)(F)CN1C(=O)CNC(=O)c1ccnc2c(OCCCNC(=O)CCSCC(=O)N3CN(C(=O)CSCCC(=O)NCCCOc4cccc5c(C(=O)NCC(=O)N6CC(F)(F)C[C@H]6C#N)ccnc45)CN(C(=O)Cn4nnc5c4CC[C@H]4[C@@H](CC5)[C@H]4COC(=O)NCCNC(=O)CCC(C(=O)O)N4CCN(CC(=O)O)CCN(CC(=O)O)CCN(CC(=O)O)CC4)C3)cccc12` (some centres unmarked) [eFAP-34], in experiment [2], it took 1.8 nM to reach half-maximal inhibition (IC50). That is a single-digit nanomolar value.

The compound `N#C[C@@H]1CC(F)(F)CN1C(=O)CNC(=O)c1ccnc2c(OCCCNC(=O)CCCCCSCC(=O)N3CN(C(=O)CSCCCCCC(=O)NCCCOc4cccc5c(C(=O)NCC(=O)N6CC(F)(F)C[C@H]6C#N)ccnc45)CN(C(=O)Cn4nnc5c4CC[C@@H]4[C@H](CC5)[C@@H]4COC(=O)NCCNC(=O)CCC(C(=O)O)N4CCN(CC(=O)O)CCN(CC(=O)O)CCN(CC(=O)O)CC4)C3)cccc12` (some centres unmarked) [eFAP-35] gave an IC50 in experiment [2] of 1.7 nM.

As to `N#C[C@@H]1CC(F)(F)CN1C(=O)CNC(=O)c1ccnc2c(OCCCNC(=O)CCOCCOCCNCC(=O)N3CN(C(=O)CNCCOCCOCCC(=O)NCCCOc4cccc5c(C(=O)NCC(=O)N6CC(F)(F)C[C@H]6C#N)ccnc45)CN(C(=O)Cn4nnc5c4CC[C@H]4[C@@H](CC5)[C@H]4COC(=O)NCCNC(=O)CCC(C(=O)O)N4CCN(CC(=O)O)CCN(CC(=O)O)CCN(CC(=O)O)CC4)C3)cccc12` (some centres unmarked) [eFAP-36], inhibition in experiment [2] was half-maximal at 0.35 nM (IC50). Compared with the last compound, the IC50 is about 4.9-fold lower.

Turning to `N#C[C@@H]1CC(F)(F)CN1C(=O)CNC(=O)c1ccnc2c(OCCCNC(=O)CCOCCOCCNc3nc(NCCCn4nnc5c4CC[C@H]4[C@@H](CC5)[C@H]4COC(=O)NCCNC(=O)CCC(C(=O)O)N4CCN(CC(=O)O)CCN(CC(=O)O)CCN(CC(=O)O)CC4)nc(NCCOCCOCCC(=O)NCCCOc4cccc5c(C(=O)NCC(=O)N6CC(F)(F)C[C@H]6C#N)ccnc45)n3)cccc12` (some centres unmarked) [eFAP-37], 0.8 ± 0.1 nM corresponded to half-maximal inhibition in experiment [1] (IC50).
